Measured values as given in patent US20240335644A1, “TREATMENT OF A DISEASE OF THE GASTROINTESTINAL TRACT WITH AN IMMUNE MODULATORY AGENT RELEASED USING AN INGESTIBLE DEVICE” (BIORA THERAPEUTICS, INC., priority 2017, published 2024).

Experiments:
[1] = Pharmacokinetic study of oral vs intra-cecal tacrolimus: blood, rectal content, GI tissue and luminal content, tissue/plasma ratios (Example 13); design: species or system Yorkshire-Cross farm swine; conditions: female, Yorkshire-Cross, swine, in vivo, 0.09 mg/kg
Excerpt: (§1) No further randomization procedure was employed.

[2] = Tissue, plasma, rectal and GI content pharmacokinetics of tacrolimus, oral vs intra-cecal ingestible device (Example 10); design: species or system Yorkshire-Cross farm swine; conditions: in vivo
Protocol: as §1
Animals in Group 1 received an ingestible device containing 0.8 mL of vehicle solution (8000 alcohol, 2000 HCO-60). Animals in Group 2 received orally […] liquid formulation of tacrolimus at 4 mg/0.8 mL per animal (Prograf: 5 mg/mL). Animals in Group 3 received intra-cecally an ingestible device containing tacrolimus at 1 mg in 0.8 mL per ingestible device. Animals in Group 4 received intra-cecally an ingestible device containing tacrolimus at 2 mg in 0.8 mL per ingestible device. Animals in Group 5 received intra-cecally an ingestible device containing tacrolimus at 4 mg in 0.8 mL per ingestible device. To control for potential confounding effects of the surgery, all groups fast on Day −11 at least 24 hr before being subjected to anesthesia followed by surgical placements of a cecal port by a veterinary surgeon at Day −10. All animals were fasted for at least 12 hr prior to dosing on Day 1. Animals were dosed via either intra-cecal dosing (IC) or oral dosing (PO) at Day 1 (between 6-8 p.m.). All animals resumed feeding at approximately 4 hours after dose (11-12 p.m. after dosing).
Animals in Group 1 (Vehicle Control) were administered a single intra-cecal ingestible device containing 0.8 mL Vehicle solution (80% alcohol, 20% castor oil (HCO-60) on Day 1. On Day −10 the animals were anesthetized, and a veterinary surgeon surgically placed an intra-cecal port in each animal. On Day 1, each animal was placed into a sling then a single intra-cecal ingestible device containing 0.8 mL vehicle solution (80% alcohol, 20% castor oil (HCO-60)) is introduced by the veterinary surgeon into the cecum via the cecal port in each animal. Following ingestible device placement, the animals were removed from the slings and placed back into their pens with water. All animals resumed feeding at approximately 4 hours after dose. […] A total of 60 samples were collected.
Approximately 200-400 mg of rectal content were collected, if available, with a fecal swab (Copan Diagnostics Nylon Flocked Dry Swabs, 502CS01). The fecal swab was pre-weighed and weighed after collection in the collection tube (Sterile Tube and Cap No Media, PFPM913S), and the sample weight was recorded. […]
For tissue necropsy, small intestine fluid and cecal fluid were collected separately from all the animals into two separate square plastic bottles, and stored at −20° C. The length and diameter of the cecum and the colon was measured from one animal in each group and recorded for reference. […] All samples were weighed, and the tissue sample weights were recorded. […] Around 3 grams of the total punched sample were collected into a pre-weighed 15-mL conical tube, and the tissue weight was recorded. […]

C=CC[C@@H]1/C=C(\C)C[C@H](C)C[C@H](OC)[C@H]2O[C@@](O)(C(=O)C(=O)N3CCCC[C@H]3C(=O)O[C@H](/C(C)=C/[C@@H]3CC[C@@H](O)[C@H](OC)C3)[C@H](C)[C@@H](O)CC1=O)[C@H](C)C[C@@H]2OC [tacrolimus]
Ratio Tissue(mean) (ng/g)/AUG(0-12 hr) (ng · hr/ml) ([1]; 12 h): 0 | Ratio Tissue(mean) (ng/g)/Trough(12 hr)(ng/ml) ([1]; 12 h): 0 | Trough (12 hr) ([1]; 12 h): 0.568 ng/mL | concentration at 12 h ([1]; Trough (12 hr)): 0.568 ± 0.291 ng/mL | luminal content (spiral, transverse, and distal colon) concentrations [2]: Significantly higher | mean concentration of tacrolimus in the cecum tissue and the proximate colon tissue [2]: higher | tissue (spiral and transverse colon) concentrations [2]: Significantly higher | level of tacrolimus in tissue ([2]; po): No measurable level
